PubChem BioAssay AID192 (DTP/NCI, 2004)
“And” between values parts separate entries of the source, which are not always exact repeats. Equal entries are not always repeated. Inconclusive results and toxic doses are left out.

Test system: BDF1 mice, B16 melanoma ip, median survival T/C
Assay: NCI In Vivo Anticancer Drug Screen. Data for tumor model B16 Melanoma (intraperitoneal) in B6D2F1 (BDF1) mice
Conditions: endpoint: median survival time, higher = longer survival
In short: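 Tumor-bearing mice received test compound or vehicle. Survival or tumor size was then measured in both groups. The treated-group figure was divided by the control-group figure.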

[1] = dose: 50.0 mg/kg/injection, schedule: Q01DX009 (ip), vehicle: saline with Tween-80
[2] = dose: 12.5 mg/kg/injection, schedule: Q01DX009 (ip), vehicle: saline with Tween-80
[3] = dose: 25.0 mg/kg/injection, schedule: Q01DX009 (ip), vehicle: saline with Tween-80
[4] = dose: 25.0 mg/kg/injection, schedule: Q04DX003 (ip), vehicle: saline with Tween-80
[5] = dose: 50.0 mg/kg/injection, schedule: Q04DX003 (ip), vehicle: saline with Tween-80
[6] = dose: 100.0 mg/kg/injection, schedule: Q01DX009 (ip), vehicle: saline
[7] = dose: 400.0 mg/kg/injection, schedule: Q01DX009 (ip), vehicle: saline
[8] = dose: 3.12 mg/kg/injection, schedule: Q01DX009 (ip), vehicle: Klucel (hydroxypropylcellulose) (HPC)
[9] = dose: 6.25 mg/kg/injection, schedule: Q01DX009 (ip), vehicle: Klucel (hydroxypropylcellulose) (HPC)
[10] = dose: 12.5 mg/kg/injection, schedule: Q01DX009 (ip), vehicle: Klucel (hydroxypropylcellulose) (HPC)
[11] = dose: 12.5 mg/kg/injection, schedule: Q01DX009 (ip), vehicle: saline
[12] = dose: 25.0 mg/kg/injection, schedule: Q01DX009 (ip), vehicle: saline
[13] = dose: 50.0 mg/kg/injection, schedule: Q01DX009 (ip), vehicle: saline
[14] = dose: 25.0 mg/kg/injection, schedule: Q01DX009 (ip), vehicle: Klucel (hydroxypropylcellulose) (HPC)
[15] = dose: 100.0 mg/kg/injection, schedule: Q01DX009 (ip), vehicle: Klucel (hydroxypropylcellulose) (HPC)
[16] = dose: 200.0 mg/kg/injection, schedule: Q01DX009 (ip), vehicle: Klucel (hydroxypropylcellulose) (HPC)
[17] = dose: 400.0 mg/kg/injection, schedule: Q01DX009 (ip), vehicle: Klucel (hydroxypropylcellulose) (HPC)

For C[n+]1c(/C=C/c2ccc(O)c3ncccc23)[se]c2ccccc21, the T/C (dose: 0.38 mg/kg/injection, schedule: Q01DX009 (ip), vehicle: saline) was 102 % of control, the T/C (dose: 0.75 mg/kg/injection, schedule: Q01DX009 (ip), vehicle: saline) was 109 % of control and the T/C (dose: 1.5 mg/kg/injection, schedule: Q01DX009 (ip), vehicle: saline) was 106 % of control. The T/C (dose: 3.0 mg/kg/injection, schedule: Q01DX009 (ip), vehicle: saline) was 109 % of control and 115 % of control, the T/C (dose: 6.0 mg/kg/injection, schedule: Q01DX009 (ip), vehicle: saline) was 106 % of control and 124 % of control and the T/C (dose: 12.0 mg/kg/injection, schedule: Q01DX009 (ip), vehicle: saline) was 115 % of control. The T/C (dose: 24.0 mg/kg/injection, schedule: Q01DX009 (ip), vehicle: saline) was 122 % of control.
For CCc1ccc(/C=C/c2ccc(O)c3ncccc23)[n+](C)c1, the T/C (dose: 4.0 mg/kg/injection, schedule: Q01DX009 (ip), vehicle: saline with Tween-80) was 93 % of control, the T/C (dose: 8.0 mg/kg/injection, schedule: Q01DX009 (ip), vehicle: saline with Tween-80) was 93 % of control and the T/C (dose: 16.0 mg/kg/injection, schedule: Q01DX009 (ip), vehicle: saline with Tween-80) was 102 % of control. The T/C (dose: 32.0 mg/kg/injection, schedule: Q01DX009 (ip), vehicle: saline with Tween-80) was 114 % of control.
For CC(C)CN(CCCCO)CC(C)C, the T/C [1] was 102 % of control, the T/C (dose: 100.0 mg/kg/injection, schedule: Q01DX009 (ip), vehicle: saline with Tween-80) was 111 % of control and the T/C (dose: 200.0 mg/kg/injection, schedule: Q01DX009 (ip), vehicle: saline with Tween-80) was 98 % of control.
For O=C(O)C(=O)O.[U], the T/C (dose: 4.0 mg/kg/injection, schedule: Q01DX009 (ip), vehicle: Klucel (hydroxypropylcellulose) (HPC)) was 88 % of control, the T/C (dose: 8.0 mg/kg/injection, schedule: Q01DX009 (ip), vehicle: Klucel (hydroxypropylcellulose) (HPC)) was 93 % of control and the T/C (dose: 16.0 mg/kg/injection, schedule: Q01DX009 (ip), vehicle: Klucel (hydroxypropylcellulose) (HPC)) was 87 % of control.
With c1ccc2c(CC3=NCCN3)cccc2c1 the T/C (dose: 6.25 mg/kg/injection, schedule: Q01DX009 (ip), vehicle: saline with Tween-80) was 102 % of control, the T/C [2] was 100 % of control and the T/C [3] was 102 % of control.
In the case of COc1cccc(OC)c1C(c1c(OC)cccc1OC)c1c(OC)cccc1OC, the T/C [4] is reported as 120 % of control, the T/C [5] is reported as 108 % of control and the T/C (dose: 100.0 mg/kg/injection, schedule: Q04DX003 (ip), vehicle: saline with Tween-80) is reported as 114 % of control.
For N/C(=N\O)c1cn(C2OC(CO)C(O)C2O)c2ncnc(N)c12 (centres undefined), the T/C (dose: 1.0 mg/kg/injection, schedule: Q01DX009 (ip), vehicle: saline) was 115 % of control, the T/C (dose: 2.0 mg/kg/injection, schedule: Q01DX009 (ip), vehicle: saline) was 117 % of control and the T/C (dose: 4.0 mg/kg/injection, schedule: Q01DX009 (ip), vehicle: saline) was 121 % of control.
Clc1ccc2c(c1)C(N1CCOCC1)c1cc(Cl)cc(Cl)c1-2 (centres undefined) was tested, and the T/C [6] was 102 % of control, the T/C (dose: 200.0 mg/kg/injection, schedule: Q01DX009 (ip), vehicle: saline) was 95 % of control and the T/C [7] was 90 % of control. For the same compound, the T/C (dose: 800.0 mg/kg/injection, schedule: Q01DX009 (ip), vehicle: saline) was 90 % of control.
For CCNCCNc1ccc(NCCNCC)c2c1C(=O)c1ccccc1C2=O, the T/C (dose: 8.0 mg/kg/injection, schedule: Q01DX009 (ip), vehicle: acid diluted with saline) was 157 % of control and the T/C (dose: 16.0 mg/kg/injection, schedule: Q01DX009 (ip), vehicle: acid diluted with saline) was 158 % of control.
CC(C)(C)c1ccc(CN2CCN(C(c3ccccc3)c3ccc(Cl)cc3)CC2)cc1 (centres undefined) was tested, and the T/C (dose: 0.39 mg/kg/injection, schedule: Q01DX009 (ip), vehicle: Klucel (hydroxypropylcellulose) (HPC)) was 86 % of control, the T/C [8] was 95 % of control and the T/C [9] was 90 % of control. The T/C [10] was 87 % of control, the T/C (dose: 175.0 nanograms/kg/injection, schedule: Q01DX009 (ip), vehicle: Klucel (hydroxypropylcellulose) (HPC)) was 105 % of control and the T/C (dose: 350.0 nanograms/kg/injection, schedule: Q01DX009 (ip), vehicle: Klucel (hydroxypropylcellulose) (HPC)) was 105 % of control. For the same compound, the T/C (dose: 700.0 nanograms/kg/injection, schedule: Q01DX009 (ip), vehicle: Klucel (hydroxypropylcellulose) (HPC)) was 101 % of control, the T/C (dose: 1400.0 nanograms/kg/injection, schedule: Q01DX009 (ip), vehicle: Klucel (hydroxypropylcellulose) (HPC)) was 105 % of control and the T/C (dose: 2800.0 nanograms/kg/injection, schedule: Q01DX009 (ip), vehicle: Klucel (hydroxypropylcellulose) (HPC)) was 107 % of control.
For OCCOCCOCCN1CCN(C(c2ccccc2)c2ccc(Cl)cc2)CC1 (centres undefined), the T/C [11] was 108 % of control, the T/C [12] was 110 % of control and the T/C [13] was 86 % of control. For the same compound, the T/C [6] was 86 % of control.
With Nc1ccccc1SC1CC(=O)N(c2ccc(I)cc2)C1=O (centres undefined) the T/C [2] was 100 % of control, the T/C [14] was 108 % of control and the T/C (dose: 50.0 mg/kg/injection, schedule: Q01DX009 (ip), vehicle: Klucel (hydroxypropylcellulose) (HPC)) was 97 % of control. For the same compound, the T/C [1] was 88 % of control and the T/C [15] was 88 % of control and 100 % of control.
In the case of Cc1cc(C(C)(CC(C)C)c2ccc(O)c(C)c2)ccc1O, the T/C [3] is reported as 107 % of control and the T/C [1] is reported as 94 % of control.
CC1CCC(=C(c2ccccc2)c2ccccc2)C(C)N1C (centres undefined) was tested, and the T/C [4] was 105 % of control and the T/C [5] was 93 % of control.
In the case of Clc1ccc(/C(=[C](\[Hg]/[C](=C(\c2ccccc2)c2ccc(Cl)cc2)c2ccccc2)c2ccccc2)c2ccccc2)cc1, the T/C [15] is reported as 105 % of control, the T/C [16] is reported as 100 % of control and the T/C [17] is reported as 94 % of control.
In the case of OCCN1CCN(CCCN2c3ccccc3C=Cc3ccccc32)CC1, the T/C (dose: 3.12 mg/kg/injection, schedule: Q01DX009 (ip), vehicle: saline) is reported as 97 % of control, the T/C (dose: 3.12 mg/kg/injection, schedule: Q04DX003 (ip), vehicle: saline) is reported as 105 % of control and the T/C (dose: 6.25 mg/kg/injection, schedule: Q01DX009 (ip), vehicle: saline) is reported as 110 % of control. The T/C [11] was 100 % of control, the T/C (dose: 12.5 mg/kg/injection, schedule: Q04DX003 (ip), vehicle: saline) was 107 % of control and the T/C [12] was 95 % of control. For the same compound, the T/C (dose: 25.0 mg/kg/injection, schedule: Q04DX003 (ip), vehicle: saline) was 122 % of control, the T/C [13] was 95 % of control and the T/C (dose: 50.0 mg/kg/injection, schedule: Q04DX003 (ip), vehicle: saline) was 115 % of control.
CC1(C)CC[C@H](C2=CC(=O)c3c(O)ccc(O)c3C2=O)O1 was tested, and the T/C (dose: 1.25 mg/kg/injection, schedule: Q01DX009 (ip), vehicle: Klucel (hydroxypropylcellulose) (HPC)) was 99 % of control, the T/C (dose: 2.5 mg/kg/injection, schedule: Q01DX009 (ip), vehicle: Klucel (hydroxypropylcellulose) (HPC)) was 97 % of control and the T/C (dose: 5.0 mg/kg/injection, schedule: Q01DX009 (ip), vehicle: Klucel (hydroxypropylcellulose) (HPC)) was 97 % of control. For the same compound, the T/C (dose: 10.0 mg/kg/injection, schedule: Q01DX009 (ip), vehicle: Klucel (hydroxypropylcellulose) (HPC)) was 92 % of control and the T/C (dose: 20.0 mg/kg/injection, schedule: Q01DX009 (ip), vehicle: Klucel (hydroxypropylcellulose) (HPC)) was 93 % of control.
In the case of OCC(O)c1ccccn1 (centres undefined), the T/C [6] is reported as 123 % of control and the T/C [7] is reported as 123 % of control.
In the case of O=C(Nc1ccccc1F)Nc1cccc2ccccc12, the T/C [15] is reported as 100 % of control, the T/C [16] is reported as 88 % of control and the T/C [17] is reported as 94 % of control.
Cc1ccc(C#N)s1 was tested, and the T/C (dose: 3.12 mg/kg/injection, schedule: Q01DX009 (ip), vehicle: other) was 104 % of control, the T/C (dose: 6.25 mg/kg/injection, schedule: Q01DX009 (ip), vehicle: other) was 109 % of control and the T/C (dose: 12.5 mg/kg/injection, schedule: Q01DX009 (ip), vehicle: other) was 101 % of control. For the same compound, the T/C (dose: 25.0 mg/kg/injection, schedule: Q01DX009 (ip), vehicle: other) was 108 % of control.
In the case of COc1ccc(C(Nc2ccccc2)C(=O)c2ccccc2)cc1 (centres undefined), the T/C [8] is reported as 90 % of control, the T/C [9] is reported as 106 % of control and the T/C [10] is reported as 89 % of control. For the same compound, the T/C [14] was 89 % of control and 90 % of control.
